Source: paper PMC12764431 (Nature immunology, 2025)

Experiments:
[1] = tested on: S5 CD4^+ T cell hybridoma; test: Response of the S5 CD4+ T cell hybridoma to synthetic peptides; assay type: cell-based, NOD mice; conditions: serially diluted peptide, IL-2 production
[2] = tested on: 9B9 CD4^+ T cell hybridoma; test: Response of the 9B9 CD4+ T cell hybridoma to synthetic peptides; assay type: cell-based, NOD mice; conditions: serially diluted peptide, IL-2 production
[3] = tested on: islet and pancreatic lymph node cells; test: IFNγ ELISPOT, antigen recall of pooled islet and pancreatic lymph node cells; assay type: cell-based; conditions: cells pooled from islets and pancreatic lymph nodes of 8-week-old female NOD mice, peptide 1 μM; n = 4
[4] = tested on: MIN6 cells and B6 mouse islets; test: Granule-based antigen presentation; assay type: cell-based; conditions: MIN6 cells stimulated with TNFα; for S5 T cell responses to crinosome fractions from TNFα-treated MIN6 cells: with or without glutathione or TUDCA, n = 6
soluble I-A^g7 molecules = test: Biochemical competitive binding assay; set-up: species or system mouse; conditions: soluble I-A^g7, Extended Data Fig. 3c,d, n = 2
[5] = tested on: MIN6 cells and B6 mouse islets; test: β cell death and total granule protein after tunicamycin; assay type: cell-based; conditions: tunicamycin 2 h, followed by extensive washing
[6] = tested on: InsB9–23(C19S)-specific T cell hybridomas; test: Responses of InsB9–23; assay type: cell-based, NOD mice; conditions: C3.g7 cells pulsed with peptides, 0.3 μM; n = 6 hybridomas
MHC-II = conditions: cited from earlier work
[7] = tested on: dendritic cells (DCs) pulsed with InsB9–23; test: MHC-II; assay type: cell-based, NOD mice; conditions: InsB9–23-pulsed DCs, TNFα or TNFα plus NAC; three independent peptidomes

Question: Which “Response of the S5 T cell hybridoma to peptide” value [1] does the source give for SHLVEALYLVSGERG [InsB9–23(C19S)] here?
Answer: responded robustly

Question: And the “Response of the 9B9 T cell hybridoma to peptide” value [2]?
Answer: minimal reactivity

Question: And the “IFNγ production by ELISPOT during antigen recall” value [3]?
Answer: triggered even higher responses

Question: With N[C@@H](CCC(=O)N[C@@H](CS)C(=O)NCC(=O)O)C(=O)O [glutathione] as the compound, how does the “S5 T cell responses to crinosome fractions from TNFα-treated MIN6 cells” value [4] read?
Answer: inhibited

Question: For “InsB12–20(C19A): surrogate InsB12–20 peptide with C19A”, which “Binding to I-A^g7 compared to native counterparts” value (soluble I-A^g7 molecules) is on record?
Answer: similarly reduced binding

Question: Which “Response of the S5 T cell hybridoma to peptide” value [1] does the source give for SHLVEALALVCGERG [InsB9–23(Y16A)] here?
Answer: failed to respond at any peptide concentration

Question: What about the “Response of the 9B9 T cell hybridoma to peptide” value [2] of the same compound?
Answer: did not respond

Question: For C[C@H](CCC(=O)NCCS(=O)(=O)O)[C@H]1CC[C@H]2[C@@H]3[C@@H](O)C[C@@H]4C[C@H](O)CC[C@]4(C)[C@H]3CC[C@]12C [TUDCA, tauroursodeoxycholic acid], which “S5 T cell responses to crinosome fractions from TNFα-treated MIN6 cells” value [4] is on record?
Answer: inhibited

Question: With tunicamycin as the compound, how does the β cell death [5] read?
Answer: did not cause β cell death

Question: With EALYLVSGE [Nested InsB13-21(C19S)] as the compound, how does the “Recognition of register peptides by InsB9–23(C19S)-specific T cell hybridomas” value [6] read?
Answer: only a few recognizing

Question: Which “IFNγ production by ELISPOT during antigen recall” value [3] does the source give for SHLVEALYLVCGERG [InsB9–23] here?
Answer: induced IFNγ production

Question: Which “MHC-II binding relative to the native C-peptide” value (MHC-II) does the source give for GDLQTLALEVARE [CP1d] here?
Answer: ~ 45 fold

Question: For CC(=O)N[C@@H](CS)C(=O)O [NAC, N-acetylcysteine], which “InsB9–23(C19S) peptide in the DC I-A^g7 peptidome” value [7] is on record?
Answer: reduced

Question: Which “Native InsB9–23 levels (9B9 T cell responses), TNFα-treated MIN6 cells” value [4] does the source give for TNFα here?
Answer: did not affect

Question: What about the “S5 T cell responses to crinosome fractions from TNFα-treated MIN6 cells” value [4] of the same compound?
Answer: significant increase

Question: What about the “InsB9–23(C19S) peptide in the DC I-A^g7 peptidome” value [7] of the same compound?
Answer: appeared
